The results in this text go back to patent US20230372382A1, “USE OF ADENOSINE DIPHOSPHATE RIBOSE FOR ADJUVANT THERAPY WITH RADIATION AND/OR ANTI-CANCER TREATMENT” (PearlsInMires Co., Ltd., priority 2021, published 2023).

Experiment [1] relates to Colon cancer (HCT116) cells. Briefly: Cell death by combination treatment with anti-cancer drug (MTT). In kind it is cell-based. To be noted: Homo sapiens, HCT-116; HCT116, ADP-ribose 1.6 μM/100 μl in combination with 5-FU 10 μM, 24 hours, P<0.001.
Procedure: (§2) 3×10^3 Brain cancer (U-87MG), lung cancer (H1975), pancreatic cancer (Aspc-1), liver cancer (Hep G2), breast cancer (MDA-MB-231), and colon cancer (HCT116) cells were cultured in a 96-well plate for 24 hours under conditions of 37° C. and 5% Ca2, respectively. […] After the treatment was terminated, the cells were cultured for 24 hours under conditions of 37° C. and 5% CO2 again, 10 μl of 3-(4,5-dimethylthiazol-2-yl)-2,5-diphenyltetrazolium bromide reagent was added to each well and reacted for 1 hour. After the reaction was completed, the reagent was removed, 200 μl of dimethyl sulfoxide was added to each well, and the absorbance was measured to compare the degree of cell death.
3×10^3 Colon cancer (HCT116) cells were cultured in a 96-well plate for 24 hours under conditions of 37° C. and 5% CO2, treated with ADP-ribose at a concentration of 1.6 μM/100 μl and 5-fluorouracil (5-FU) at 10 μM, individually or in combination, and cultured for 24 hours under conditions of 37° C. and 5% CO2 again. Then, 10 μl of 3-(4,5-dimethylthiazol-2-yl)-2,5-diphenyltetrazolium bromide reagent was added to each well and reacted for 1 hour. After the reaction was completed, the reagent was removed, 200 μl of dimethyl sulfoxide was added to each well, and the absorbance was measured to confirm cell viability.
The test system of experiment [2] is U-87MG cells. Briefly: Cancer cell death verification (MTT cell viability). In kind it is cell-based.
Procedure: (§3) 3×10^3 Brain cancer (U-87MG), lung cancer (H1975), pancreatic cancer (Aspc-1), liver cancer (Hep G2), breast cancer (MDA-MB-231), colon cancer (HCT116), kidney cancer (Caki-1), gastric cancer (SNU-1) and ovarian cancer (OVCAR-3) cells were cultured in a 96-well plate under conditions of 37° C. and 5% CO2 for 24 hours, and then each cancer cell was treated with ADP-ribose at each concentration. After culturing for 24 hours under conditions of 37° C. and 5% CO2 again, 10 μl of 3-(4,5-dimethylthiazol-2-yl)-2,5-diphenyltetrazolium bromide reagent was added to each well and reacted for 1 hour. After the reaction was completed, the reagent was removed, 200 μl of dimethyl sulfoxide was added to each well, and the absorbance was measured to determine the concentration of half-lethality and maximum lethality compared to untreated cells.
3×10^3 U-87MG cells were cultured in a 96-well plate for 24 hours under conditions of 37° C. and 5% CO2, treated with ADP-ribose at final concentrations of 0.125, 0.25, 0.5, 1, 2, 4, 8, 16, and 32 μM, respectively, and cultured again for 24 hours under conditions of 37° C. and 5% CO2. Then, 10 μl of 3-(4,5-dimethylthiazol-2-yl)-2,5-diphenyltetrazolium bromide reagent was added to each well and reacted for 1 hour. After the reaction was completed, the reagent was removed, 200 μl of dimethyl sulfoxide was added to each well, and the absorbance was measured to confirm cell viability.
In a further experiment the test system is Caki-1 cells. Put plainly: Cell death by combination treatment of ADP-ribose and radiation (MTT). Format: cell-based. To be noted: Caki-1, 16 μM ADP-ribose in combination with 2 Gy radiation, 24 hours, P<0.001; 2 Gy alone about 94.7%.
Experiment [3] deals with AsPC-1 cells. The description is as above. To be noted: AsPC-1, 2 μM ADP-ribose in combination with 2 Gy radiation, 24 hours, P<0.001; 2 Gy alone about 87.3%. Format: cell-based.
Procedure: (§4) 3×10^3 Brain cancer (U-87MG), lung cancer (H1975), pancreatic cancer (Aspc-1), liver cancer (Hep G2), breast cancer (MDA-MB-231), colon cancer (HCT116), and kidney cancer (Caki-1) cells were cultured in a 96-well plate for 24 hours under conditions of 37° C. and 5% CO2, treated with ADP-ribose or 2 or 5 Gy radiation alone or in combination with ADP-ribose and 2 Gy radiation, and cultured for 24 hours under conditions of 37° C. and 5% CO2 again. Then, 10 μl of 3-(4,5-dimethylthiazol-2-yl)-2,5-diphenyltetrazolium bromide reagent was added to each well and reacted for 1 hour. After the reaction was completed, the reagent was removed, 200 μl of dimethyl sulfoxide was added to each well, and the absorbance was measured to compare the degree of cell death.
3×10^3 AsPC-1 cells were cultured in a 96-well plate for 24 hours under conditions of 37° C. and 5% CO2, treated with 2 μM of ADP-ribose and 2 or 5 Gy dose of radiation individually or in combination, and cultured for 24 hours under conditions of 37° C. and 5% CO2 again. Then, 10 μl of 3-(4,5-dimethylthiazol-2-yl)-2,5-diphenyltetrazolium bromide reagent was added to each well and reacted for 1 hour. After the reaction was completed, the reagent was removed, 200 μl of dimethyl sulfoxide was added to each well, and the absorbance was measured to confirm cell viability.
For experiment [4], the system named is Breast cancer (MDA-MB-231) cells. Put plainly: Xenograft model, combination with radiation, tumor volume. In kind it is in vivo, BALB/c nude mice. To be noted: MDA-MB-231 xenograft. The procedure: Brain cancer (U-87MG), pancreatic cancer (AsPC-1), breast cancer (MDA-MB-231), or kidney cancer (Caki-1) cells (1×10^7 cells) were inoculated into 5-week-old BALB/c nude mice on the back flank, respectively. Then, when tumors were grown to a volume of approximately 150 mm^3, the mice were divided into three groups: the control group (Control), 2 Gy dose of radiation alone, and a combination administration of 2 Gy dose of radiation+10 mg/kg of ADP-ribose (subcutaneous administration, 3 times a week). The irradiation was performed with an X-Rad 320 irradiator (Precision X-ray, North Branford, CT, USA), wherein the mice were placed by maintaining an appropriate distance from the radiation source for irradiation with a predetermined radiation dose. A lead shield was used to protect the body parts or organs from exposure to radiation, other than the cancerous part of the mouse. The irradiation was performed with a total of 2 Gy of radiation fractionated into two doses of 1 Gy each (for 2 days) at a dose rate of 300 kVp and 150 cGy/min using an X-ray beam filter composed of 12.5 mA and 2.0 mm Al. The tumor size was measured every 6 days using a digital caliper, and the results of changes in tumor volume were compared by the group.
Breast cancer (MDA-MB-231) cells (1×10^7) were inoculated into 5-week-old BALB/c nude mice on the back flank, and the mice were divided into three groups: the control group (Control), 2 Gy dose of radiation alone, and combination administration of 2 Gy dose radiation+20 mg/kg of ADP-ribose. When the tumors were grown to a volume of approximately 150 mm^3, 2 Gy dose of radiation was irradiated twice at 1 Gy each, and 20 mg/kg of ADP-ribose was injected subcutaneously 3 times a week. The tumor size was measured using a digital caliper, and the results of changes in tumor volume were compared by the group.

For experiment [5], the system named is H1975 cells. Briefly: Cancer cell death verification (MTT cell viability). In kind it is cell-based.
Procedure: as §3
3×10^3 H1975 cells were cultured in a 96-well plate for 24 hours under conditions of 37° C. and 5% CO2, treated with ADP-ribose at concentrations of 0.125, 0.25, 0.5, 1, 2, 4, 8, 16, and 32 μM, respectively, and cultured again for 24 hours under conditions of 37° C. and 5% CO2. Then, 10 μl of 3-(4,5-dimethylthiazol-2-yl)-2,5-diphenyltetrazolium bromide reagent was added to each well and reacted for 1 hour. After the reaction was completed, the reagent was removed, 200 μl of dimethyl sulfoxide was added to each well, and the absorbance was measured to confirm cell viability.
In a further experiment the test system is SNU-1 cells. The experiment is described as above. Format: cell-based. The settings on record: SNU-1, 32 μM ADP-ribose, 24 hours.
The next experiment relates to Hep G2 cells. Briefly: Cell death by combination treatment of ADP-ribose and radiation (MTT). Format: cell-based. To be noted: Hep G2, 4 μM ADP-ribose in combination with 2 Gy radiation, 24 hours, P<0.001; 2 Gy alone about 82.3%.
Experiment [6] has as its system U-87MG cells. Put plainly: Change over time in intracellular ADP-ribose, radiation versus ADP-ribose treatment (ELISA). In kind it is cell-based. The settings on record: 8 μM ADP-ribose, even after 24 hours, after radiation back to untreated level at 24 hours. The procedure:
(§1) Brain cancer (U-87MG), kidney cancer (Caki-1), pancreatic cancer (AsPC-1), or breast cancer (MDA-MB-231) cells were cultured in a 6-well plate, respectively, and the cells were divided into the untreated group, the radiation-treated group, and the ADP-ribose-treated group. Irradiation was performed using an X-Rad 320 irradiator (Precision X-ray, North Branford, CT, USA), and cancer cells were treated with a total of 1, 2, and 5 Gy at a dose rate of 300 kVp and 150 cGy/min using an X-ray beam filter composed of 12.5 mA and 2.0 mm Al, respectively. Before treatment and at 4, 8, 16, and 24 hours after treatment, the medium was removed, the cells were washed with phosphate-buffered saline, and then RIPA buffer was added and the products were left on ice for 20 minutes. After scraping the cells, the cells were put in a centrifuge tube and centrifuged for 10 minutes at 10,000 g and 4° C. The supernatant was obtained, and 1% SDS was added, and then the reaction product was boiled at 100° C. for 5 minutes and cooled on ice. The supernatant was centrifuged again at 10,000 g and 4° C. for 10 minutes to obtain the final supernatant, and ADP-ribose was quantitatively analyzed using an ELISA analysis kit (Cell Biolabs, Inc., San Diego, CA, USA). […]
(In general: In an ELISA, binding on a coated surface is turned into a signal by an enzyme label.)

The test system of experiment [7] is H1975 cells. Briefly: Cell death by combination treatment of ADP-ribose and radiation (MTT). The settings on record: H1975, 2 μM ADP-ribose in combination with 2 Gy radiation, 24 hours, P<0.001; 2 Gy alone about 75%. In kind it is cell-based.
Procedure: 3×10^3 H1975 cells were cultured in a 96-well plate for 24 hours under conditions of 37° C. and 5% Ca2, treated with 2 μM of ADP-ribose and 2 or 5 Gy dose of radiation individually or in combination, and cultured for 24 hours under conditions of 37° C. and 5% CO2 again. Then, 10 μl of 3-(4,5-dimethylthiazol-2-yl)-2,5-diphenyltetrazolium bromide reagent was added to each well and reacted for 1 hour. After the reaction was completed, the reagent was removed, 200 μl of dimethyl sulfoxide was added to each well, and the absorbance was measured to confirm cell viability.
In experiment [8] the test system is Liver cancer (Hep G2) cells. Briefly: Cell death by combination treatment with anti-cancer drug (MTT). The settings on record: Homo sapiens, HepG2, 24 h, read-out: viability of cancer cells.
Procedure: 3×10^3 Liver cancer (Hep G2) cells were cultured in a 96-well plate for 24 hours under conditions of 37° C. and 5% CO2, treated with ADP-ribose at a concentration of 1.6 μM and sorafenib at 1 μM, individually or in combination, and cultured for 24 hours under conditions of 37° C. and 5% CO2 again. Then, 10 μl of 3-(4,5-dimethylthiazol-2-yl)-2,5-diphenyltetrazolium bromide reagent was added to each well and reacted for 1 hour. After the reaction was completed, the reagent was removed, 200 μl of dimethyl sulfoxide was added to each well, and the absorbance was measured to confirm cell viability.
Experiment [9] relates to AsPC-1 cells. Put plainly: Change over time in intracellular ADP-ribose, radiation versus ADP-ribose treatment (ELISA). To be noted: AsPC-1, 2 μM ADP-ribose, even after 24 hours; after radiation back to untreated level from 16 hours. Format: cell-based. As for the experimental part:
as §1

For experiment [10], the system named is Pancreatic cancer (AsPC-1) cells. Briefly: Cell death by combination treatment with anti-cancer drug (MTT). In kind it is cell-based. The settings on record: Homo sapiens, ASPC1, 24 h.
Procedure: as §2
Then, 10 μl of 3-(4,5-dimethylthiazol-2-yl)-2,5-diphenyltetrazolium bromide reagent was added to each well and reacted for 1 hour. After the reaction was completed, the reagent was removed, 200 μl of dimethyl sulfoxide was added to each well, and the absorbance was measured to confirm cell viability.
Where [11] appears, read: ADP-ribose 20 mg/kg s.c. + 2 Gy radiation, P<0.001.

Procedure for Caki-1 cells: 3×10^3 Caki-1 cells were cultured in a 96-well plate for 24 hours under conditions of 37° C. and 5% CO2, treated with 16 μM of ADP-ribose and 2 or 5 Gy dose of radiation individually or in combination, and cultured for 24 hours under conditions of 37° C. and 5% CO2 again. Then, 10 μl of 3-(4,5-dimethylthiazol-2-yl)-2,5-diphenyltetrazolium bromide reagent was added to each well and reacted for 1 hour. After the reaction was completed, the reagent was removed, 200 μl of dimethyl sulfoxide was added to each well, and the absorbance was measured to confirm cell viability.
Procedure for Hep G2 cells: as §4
3×10^3 Hep G2 cells were cultured in a 96-well plate for 24 hours under conditions of 37° C. and 5% CO2, treated with 4 μM of ADP-ribose and 2 or 5 Gy dose of radiation individually or in combination, and cultured for 24 hours under conditions of 37° C. and 5% CO2 again. Then, 10 μl of 3-(4,5-dimethylthiazol-2-yl)-2,5-diphenyltetrazolium bromide reagent was added to each well and reacted for 1 hour. After the reaction was completed, the reagent was removed, 200 μl of dimethyl sulfoxide was added to each well, and the absorbance was measured to confirm cell viability.
Procedure for SNU-1 cells: 3×10^3 SNU-1 or OVCAR-3 cells were cultured in a 96-well plate for 24 hours under conditions of 37° C. and 5% CO2, treated with ADP-ribose at concentrations of 32 μM, respectively, and cultured again for 24 hours under conditions of 37° C. and 5% CO2. Then, 10 μl of 3-(4,5-dimethylthiazol-2-yl)-2,5-diphenyltetrazolium bromide reagent was added to each well and reacted for 1 hour. After the reaction was completed, the reagent was removed, 200 μl of dimethyl sulfoxide was added to each well, and the absorbance was measured to confirm cell viability.

On to `Nc1ncnc2c1ncn2[C@@H]1O[C@H](COP(=O)(O)OP(=O)(O)OC[C@H]2O[C@@H](O)C(O)C2O)C(O)C1O` (stereo partly shown) [ADP-ribose, adenosine diphosphate ribose], for which the values for the viability at 1.6 µM in [1], in experiment [8] and in experiment [10] were around 12%, around 0.9% and around 1%, respectively. The IC50 with U-87MG cells [2] (Homo sapiens, U-87 MG, 24 h, read-out: half-lethal dose (concentration at which about half of the cells were killed)) is around 8 µM; in the experiment with H1975 cells [5] (Homo sapiens, NCI-H1975, 24 h, read-out: half-lethal dose (concentration at which about half of the cells were killed)), around 2 µM. Further, the “maximum lethal dose (concentration at which almost all cells were killed)” value worked out at 32 µM in the experiment with U-87MG cells [2] (U-87MG, 24 hours, MTT) and 32 µM in the experiment on H1975 cells [5] (H1975, 24 hours, MTT). Moreover, the “cancer cell growth under a microscope” value in the experiment with U-87MG cells [2] (U-87MG, ADP-ribose treated vs control, FIG. 2A) was “inhibited from growing and killed”; in the experiment with H1975 cells [5] (H1975, ADP-ribose treated vs control, FIG. 3A) it was “inhibited from growing and killed”. Further, the “survival rate of cancer cells” value in the experiment on Caki-1 cells is recorded as “about 22.7%”; in the experiment on AsPC-1 cells [3], “about 8%”; in the experiment with Hep G2 cells, “about 7.3%”; in the experiment on H1975 cells [7], “about 8%”. The “reduction of tumor volume compared to the control group” value in experiment [4] (setting [11]) is given as “about 72.6%”. In addition, in [4] (setting [11]), the “reduction of tumor volume compared to the group treated with 2 Gy dose of radiation alone” value was “about 56.1%”. Also, in experiment [4] (ADP-ribose 20 mg/kg subcutaneous 3 times a week + 2 Gy radiation, control about 2336.1, 2 Gy alone about 1459.6), the final tumor volume result is reported as “about 640.4 mm^3”. Further, the “cell death compared to the control group” value in the experiment on SNU-1 cells is “killed significantly”. The “amount of ADP-ribose in the cells over time compared to the control group” value with U-87MG cells [6] and with AsPC-1 cells [9] was “maintained a significant (P<0.001) increase” in each case.
